Results on 17 molecules are retold here after US20240199613A1 (TAKEDA PHARMACEUTICAL COMPANY LIMITED, priority 2021, published 2024).

In one test the target is T1, plasma kallikrein (Homo sapiens, UniProt P03952).
T1 construct: from tissue; host or cells: sodium citrate collected human plasma (78% final)
The experiment in a line: Neat human plasma assay: contact pathway-activated (FXIIa) plasma, PFR-AMC substrate. In kind it is biochemical. As to conditions: citrated human plasma (78% final), 10 nM human FXIIa, 100 μM PFR-AMC, room temperature. Here is the method:
To analyze inhibition of plasma kallikrein in an ex vivo setting, the potency of compounds was measure in contact pathway-activated plasma assays. In a fluorogenic peptide substrate assay, test compounds dissolved in DMSO were added to sodium citrate collected human or rat plasma in a 96-well microplate. Alternatively, citrated plasma was collected from rats administered the compounds orally or by IV. 10 nM of human FXIIa (Enzyme Research Laboratories) diluted in pKal buffer (20 mM Tris-HCl, pH 7.5, 150 mM NaCl, 1 mM EDTA, 0.1% PEG-8000, and 0.1% Triton X-100) was added to the plasma, followed by the 100 μM of the profluorescent, synthetic plasma kallikrein substrate PFR-AMC (also diluted in pKal buffer). Final plasma concentration in the reaction was 78%. Fluorescence was immediately monitored by excitation/emission wavelengths of 360 nm/480 nm respectively over a period of 5 minutes in a microplate reader. The resulting linear increase in fluorescence emission (reflecting pKal proteolysis of PFR-AMC substrate) was fit to extract a proteolytic rate (fluorescent units over time), and this rate was subsequently plotted against compound inhibitor concentration. Resulting plots were fit to a standard 4-parameter IC50/IC90 equation to determine min/max values, IC50/90, and slope. All experimental steps were performed at room temperature.

Test [1] addresses human activated kallikrein enzyme (Homo sapiens, UniProt P03952). The experiment in a line: Inhibition of activated plasma kallikrein, fluorogenic peptide substrate (PFR-AMC) assay, 500 pM enzyme format. In kind it is biochemical. As to conditions: 500 pM activated kallikrein, 300 uM PFR-AMC, 30 min preincubation, 10 min reaction, room temperature; read-out: Primary Dose Response Assay: Average EC50. Summed up: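 500 pM enzyme preincubated 30 min at room temperature with inhibitor in 20 mM Tris pH 7.5, 150 mM NaCl, 1 mM EDTA, 0.1% PEG-400, 0.1% Triton X-100. Reaction started with 300 uM PFR-AMC and run 10 min at room temperature. Fluorescence read at 380 nm excitation/460 nm emission.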

T1 sequence (P03952 391-638 limits assumed): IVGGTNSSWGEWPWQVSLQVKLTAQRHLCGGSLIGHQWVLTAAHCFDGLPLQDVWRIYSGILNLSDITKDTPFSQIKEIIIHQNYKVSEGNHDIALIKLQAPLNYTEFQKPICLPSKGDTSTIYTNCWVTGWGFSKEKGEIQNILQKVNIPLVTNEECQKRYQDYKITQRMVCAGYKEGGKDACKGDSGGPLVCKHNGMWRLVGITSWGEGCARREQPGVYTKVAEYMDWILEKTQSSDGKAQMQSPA
T1 sequence (P03952 20-390 partner limits assumed): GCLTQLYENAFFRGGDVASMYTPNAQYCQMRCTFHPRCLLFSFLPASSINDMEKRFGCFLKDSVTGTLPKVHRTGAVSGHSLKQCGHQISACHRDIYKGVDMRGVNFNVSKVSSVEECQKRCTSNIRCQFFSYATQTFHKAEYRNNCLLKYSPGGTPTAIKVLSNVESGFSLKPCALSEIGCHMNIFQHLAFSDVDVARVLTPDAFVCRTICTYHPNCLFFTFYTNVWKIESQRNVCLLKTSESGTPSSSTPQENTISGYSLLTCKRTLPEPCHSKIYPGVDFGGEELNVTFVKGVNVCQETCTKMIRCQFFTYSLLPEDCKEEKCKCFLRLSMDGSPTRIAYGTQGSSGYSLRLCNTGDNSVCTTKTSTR
Chain of human activated kallikrein enzyme (P03952 391-638 limits assumed): as the sequence (P03952 391-638 limits assumed) above
Chain of human activated kallikrein enzyme (P03952 20-390 partner limits assumed): as the sequence (P03952 20-390 partner limits assumed) above

As usually defined, the IC90 is the concentration at which the effect reaches the 90% level. Higher therefore signals weaker potency. For orientation: EC50 means the concentration needed to bring the measured effect to its halfway point. The molecule `Cc1ccnc([C@H]2C[C@@H]2c2ccc3ccc(NCc4cn5cc(C6CC6)cc(N6CC(=O)N(C)C6=O)c5n4)cc3n2)n1` (racemic) [Example 57, rac-1-(6-cyclopropyl-2-(((2-((1S*,2S*)-2-(4-methylpyrimidin-2-yl)cyclopropyl)quinolin-7-yl)amino)methyl)imidazo[1,2-a]pyridin-8-yl)-3-methylimidazolidine-2,4-dione] came in with an IC90 against plasma kallikrein of 1500 to 10000 nM. The EC50 in test [1] was ≤ 1 nM.
Take `Cc1ccnc([C@H]2C[C@@H]2C2=NS(=O)(=O)c3ccc(N(C)Cc4cn5cc(C6CC6)ccc5n4)cc3N2)n1` (racemic) [Example 80, rac-6-(((6-cyclopropylimidazo[1,2-a]pyridin-2-yl)methyl)(methyl)amino)-3-((1S*,2S*)-2-(4-methylpyrimidin-2-yl)cyclopropyl)-4H-benzo[e][1,2,4]thiadiazine 1,1-dioxide]: the IC90 on plasma kallikrein was 1500 to 10000 nM. Moreover, the EC50 in test [1] is ≤ 1 nM.
At plasma kallikrein, `COCc1cc(NCc2cn3cc(C4CC4)cc(N4CC(=O)N(C)C4=O)c3n2)cc2nc([C@H]3C[C@@H]3c3nccc(C)n3)ccc12` (racemic) [Example 75, rac-1-(6-cyclopropyl-2-(((5-(methoxymethyl)-2-((1S*,2S*)-2-(4-methylpyrimidin-2-yl)cyclopropyl)quinolin-7-yl)amino)methyl)imidazo[1,2-a]pyridin-8-yl)-3-methylimidazolidine-2,4-dione] had an IC90 of 400 to 1500 nM. The EC50 in test [1] is ≤ 1 nM.
On the same counts, the results for `Cc1ccnc([C@H]2C[C@@H]2c2ccc3ccc(NCc4cn5cc(C6CC6)nc(N6CC(=O)N(C)C6=O)c5n4)cc3n2)n1` (racemic) [Example 106, rac-1-(6-cyclopropyl-2-(((2-((1S*,2S*)-2-(4-methylpyrimidin-2-yl)cyclopropyl)quinolin-7-yl)amino)methyl)imidazo[1,2-a]pyrazin-8-yl)-3-methylimidazolidine-2,4-dione] are 1500 to 10000 nM and 1 to 10 nM.
On plasma kallikrein, `Cc1ccnc([C@H]2C[C@@H]2c2cc(N(C)S(C)(=O)=O)c3ccc(NCc4cn5cc(C6CC6)cc(N6CC(=O)N(C)C6=O)c5n4)cc3n2)n1` (racemic) [Example 34, rac-N-(7-(((6-cyclopropyl-8-(3-methyl-2,4-dioxoimidazolidin-1-yl)imidazo[1,2-a]pyridin-2-yl)methyl)amino)-2-((1S*,2S*)-2-(4-methylpyrimidin-2-yl)cyclopropyl)quinolin-4-yl)-N-methylmethanesulfonamide] returned an IC90 of 1500 to 10000 nM. Also, the EC50 in test [1] lay within 1 to 10 nM.
For `Cc1ccnc([C@H]2C[C@@H]2C2=NS(=O)(=O)c3ccc(NCc4cn5cc(C6CC6)ccc5n4)cc3N2)n1` (racemic) [Example 64, rac-6-(((6-cyclopropylimidazo[1,2-a]pyridin-2-yl)methyl)amino)-3-((1S*,2S*)-2-(4-methylpyrimidin-2-yl)cyclopropyl)-4H-benzo[e][1,2,4]thiadiazine 1,1-dioxide], the IC90 at plasma kallikrein lay within 400 to 1500 nM. In addition, the EC50 in test [1] is ≤ 1 nM.
On plasma kallikrein, `Cc1ccnc([C@H]2C[C@@H]2c2cc(O)c3cnc(NCc4cn5cc(C6CC6)cc(N6CC(=O)N(C)C6=O)c5n4)nc3n2)n1` (racemic) [Example 86, rac-1-(6-cyclopropyl-2-(((5-hydroxy-7-((1S*,2S*)-2-(4-methylpyrimidin-2-yl)cyclopropyl)pyrido[2,3-d]pyrimidin-2-yl)amino)methyl)imidazo[1,2-a]pyridin-8-yl)-3-methylimidazolidine-2,4-dione] displayed an IC90 of 1500 to 10000 nM. Further, in test [1], the EC50 was ≤ 1 nM.
On plasma kallikrein, `COc1cc2ccc([C@H]3C[C@@H]3c3nccc(C)n3)nc2cc1NCc1cn2cc(C3CC3)cc(N3CC(=O)N(C)C3=O)c2n1` (racemic) [Example 84, rac-1-(6-cyclopropyl-2-(((6-methoxy-2-((1S*,2S*)-2-(4-methylpyrimidin-2-yl)cyclopropyl)quinolin-7-yl)amino)methyl)imidazo[1,2-a]pyridin-8-yl)-3-methylimidazolidine-2,4-dione] displayed an IC90 of 1500 to 10000 nM. Further, the EC50 in test [1] was ≤ 1 nM.
At plasma kallikrein, `Cc1ccnc([C@H]2C[C@@H]2C2=NS(=O)(=O)c3ccc(NC(C)c4cn5cc(C6CC6)ccc5n4)cc3N2)n1` (stereo partly drawn) [Example 87, 6-((1-(6-cyclopropylimidazo[1,2-a]pyridin-2-yl)ethyl)amino)-3-((1S,2S)-2-(4-methylpyrimidin-2-yl)cyclopropyl)-4H-benzo[e][1,2,4]thiadiazine 1,1-dioxide] registered an IC90 of 400 to 1500 nM. Moreover, the EC50 in test [1] was ≤ 1 nM.
Turning to `Cc1ccnc([C@H]2C[C@@H]2c2cc(N3CC4(COC4)C3)c3ccc(OCc4cn5cc(C6CC6)cc(N6CC(=O)N(C)C6=O)c5n4)cc3n2)n1` [Example 43, 1-[6-cyclopropyl-2-[[2-[(1S,2S)-2-(4-methylpyrimidin-2-yl)cyclopropyl]-4-(2-oxa-6-azaspiro[3.3]heptan-6-yl)-7-quinolyl]oxymethyl]imidazo[1,2-a]pyridin-8-yl]-3-methyl-imidazolidine-2,4-dione], the IC90 on plasma kallikrein was ≤ 400 nM. For the same molecule, in test [1], the EC50 was ≤ 1 nM.
Take `Cc1ccnc([C@H]2C[C@@H]2c2cc(N3CC(O)C3)c3ccc(NCc4cn5cc(C6CC6)cc(N6CC(=O)N(C)C6=O)c5n4)cc3n2)n1` [Example 31, 1-(6-cyclopropyl-2-(((4-(3-hydroxyazetidin-1-yl)-2-((1S,2S)-2-(4-methylpyrimidin-2-yl)cyclopropyl)quinolin-7-yl)amino)methyl)imidazo[1,2-a]pyridin-8-yl)-3-methylimidazolidine-2,4-dione]: the IC90 against plasma kallikrein is ≤ 400 nM. In addition, in test [1], the concentration for a half-maximal effect (EC50) is ≤ 1 nM.
Consider `Cc1ccnc([C@H]2C[C@@H]2c2ccc3ccc(NCc4cn5cc(C6CC6)cc(N6CC(=O)NC6=O)c5n4)cc3n2)n1` (racemic) [Example 81, rac-1-(6-cyclopropyl-2-(((2-((1S*,2S*)-2-(4-methylpyrimidin-2-yl)cyclopropyl)quinolin-7-yl)amino)methyl)imidazo[1,2-a]pyridin-8-yl)imidazolidine-2,4-dione], for which, at plasma kallikrein, the IC90 fell in the range of 1500 to 10000 nM. For the same molecule, the EC50 in test [1] was ≤ 1 nM.
In the case of `CN1C(=O)CN(c2cc(C3CC3)cn3cc(CNc4ccc5c(=O)[nH]c([C@H]6C[C@@H]6c6cccc(Cl)c6)nc5c4)nc23)C1=O` [Example 6, 1-(2-(((2-((1S,2S)-2-(3-chlorophenyl)cyclopropyl)-4-oxo-3,4-dihydroquinazolin-7-yl)amino)methyl)-6-cyclopropylimidazo[1,2-a]pyridin-8-yl)-3-methylimidazolidine-2,4-dione], the IC90 against plasma kallikrein was 1500 to 10000 nM. In addition, in test [1], the EC50 lay within 1 to 10 nM.
In turn, `Cc1ccnc([C@H]2C[C@@H]2C2=NS(=O)(=O)c3ccc(OCc4cn5cc(C6CC6)ccc5n4)cc3N2)n1` (racemic) [Example 92, rac-6-((6-cyclopropylimidazo[1,2-a]pyridin-2-yl)methoxy)-3-((1S*,2S*)-2-(4-methylpyrimidin-2-yl)cyclopropyl)-4H-benzo[e][1,2,4]thiadiazine 1,1-dioxide] came in with an IC90 against plasma kallikrein of 1500 to 10000 nM. Also, the EC50 in test [1] was ≤ 1 nM.
For `Cc1ccnc([C@H]2C[C@@H]2c2ccc3c(N(C)C)cc(NCc4cn5cc(C6CC6)cc(N6CC(=O)N(C)C6=O)c5n4)cc3n2)n1` (racemic) [Example 88, rac-1-(6-cyclopropyl-2-(((5-(dimethylamino)-2-((1S*,2S*)-2-(4-methylpyrimidin-2-yl)cyclopropyl)quinolin-7-yl)amino)methyl)imidazo[1,2-a]pyridin-8-yl)-3-methylimidazolidine-2,4-dione], the IC90 at plasma kallikrein fell in the range of 400 to 1500 nM. Besides, the EC50 in test [1] is ≤ 1 nM.
On the same counts, the results for `Cc1ccnc([C@H]2C[C@@H]2c2cc(N3CC4(COC4)C3)c3ccc(NCc4cn5cc(C6CC6)cc(N6CC(=O)N(C)C6=O)c5n4)cc3n2)n1` [Example 36, 1-(6-cyclopropyl-2-(((2-((1S,2S)-2-(4-methylpyrimidin-2-yl)cyclopropyl)-4-(2-oxa-6-azaspiro[3.3]heptan-6-yl)quinolin-7-yl)amino)methyl)imidazo[1,2-a]pyridin-8-yl)-3-methylimidazolidine-2,4-dione] are ≤ 400 nM and ≤ 1 nM.
With `CNc1cc([C@H]2C[C@@H]2c2nccc(C)n2)nc2cc(NCc3cn4cc(C5CC5)cc(N5CC(=O)N(C)C5=O)c4n3)ccc12` (racemic) [Example 32, rac-1-(6-cyclopropyl-2-(((4-(methylamino)-2-((1S*,2S*)-2-(4-methylpyrimidin-2-yl)cyclopropyl)quinolin-7-yl)amino)methyl)imidazo[1,2-a]pyridin-8-yl)-3-methylimidazolidine-2,4-dione], the concentration for an effect of 90% (IC90) against plasma kallikrein is ≤ 400 nM. For the same molecule, in test [1], the EC50 is ≤ 1 nM.
